By IC50 is commonly meant the concentration at which inhibition is half-maximal. The IC80 is the point of the concentration-response curve where the effect stands at 80%. Low values mean an effect from little substance, high ones a need for much substance. By IC90 is commonly meant the concentration needed for an effect of 90%. A higher IC90 goes with weaker potency. A word on the GI50: it is the concentration that inhibits growth by half.

This note sets out measurements from patent US10196357B2, “Biaryl compositions and methods for modulating a kinase cascade” (Athenex, Inc., priority 2007, dated 2019).

The test system of one experiment is H226. The experiment can be described thus: MTT growth inhibition, Dasatinib-resistant H226. The note with it: H226, 8.0×10^3 cells/well, […] FBS, 78 Hr. The class given is cell-based, human.
The test system of experiment [1] is Jurkat (Adult T cell leukemia). The experiment can be described thus: growth inhibition, Jurkat. The class given is cell-based, Human.
In the next experiment the test system is FAK Y397. The experiment can be described thus: FAK autophosphorylation in cells. The class given is cell-based. The conditions noted are these: c-Src527F/NIH3T3 cells. On the procedure: (§1) HT29 (colon cancer) and c-Src527F/NIH-3T3 (Src transformed) cell lines were treated with KX2-391 or with AstraZeneca's ATP competitive Src inhibitor AZ28. AZ28 serves as a positive comparator to show what a validated Src inhibitor should do in these assays. After treatment with compound, cells were lysed, subjected to PAGE and probed with a battery of antibodies. […] In addition, off-target protein phosphorylation was also investigated. Further, induction of apoptosis was evaluated via Caspase 3 cleavage. Multiple doses of each compound were tested because the trends in response to increasing drug concentration are the most reliable indicator of activity.
(§2) The same range of multiples of the GI50 for AZ28 in these two cell lines was run as a comparison.
FAK Y397 is mainly a FAK autophosphorylation site and only a poor Src transphorylation site. AZ28 is […] a potent FAK inhibitor (see isolated enzyme data in Table 8). However, no inhibition of FAK autophosphorylation in c-Src527F/NIH3T3 cells is seen with KX-391.

The next experiment concerns JAK1 Y1022/1023. Briefly: whole cell phosphorylation, JAK1. The conditions noted are these: whole cells. The class given is cell-based.
For experiment [2], the system named is Ba/F3 + BCR-Abl T315I mutant. The experiment can be described thus: MTT growth inhibition, Ba/F3 + BCR-Abl T315I. The conditions noted are these: 96 hrs. The class given is cell-based. From the text:
Cultures of Ba/F3 cells were also transfected to express wild-type (WT) Bcr-Abl, E255K mutation of Bcr-Abl, or T315I mutation of Bcr-Abl and cultured in 96-well plates in complete media without IL-3. The Ba/F3 cell line is rendered Gleevec resistant when the mutation in the Bcr/Abl tyrosine kinase […] is present. […] All assays are in triplicate.

A further experiment has as its system Lck Y405. The experiment can be described thus: whole cell phosphorylation, Lck. The class given is cell-based. The note with it: whole cells.
The test system of a further experiment is Bcr/Abl &245. The experiment can be described thus: whole cell phosphorylation, Bcr/Abl. The class given is cell-based. The note with it: whole cells.
The next experiment relates to H460. Briefly: MTT growth inhibition, Dasatinib-resistant H460. The conditions noted are these: H460, 8.0×10^3 cells/well, […] FBS, 78 Hr.
Another experiment relates to LN-18. Briefly: brain tumor cell growth inhibition, LN-18. The class given is cell-based, Human. The conditions noted are these: LN-18, glioblastoma; glioma; read-out: IC50 (title: GI50).
For another experiment, the system named is Caki-2. Briefly: renal tumor cell growth inhibition, Caki-2. The class given is cell-based, Human. The conditions noted are these: Caki-2, clear cell carcinoma. On the procedure: These GI50s were determined using standard tumor growth inhibition assays, similar to those described in detail in this Example 7.
The test system of experiment [3] is protein tyrosine kinases (PTKs). Briefly: selectivity for protein tyrosine kinases in whole cells. The class given is cell-based. The note with it: as compared to Dasatinib. From the text: The compounds of the invention are selective for protein tyrosine kinases (PTKs). […] SYF cells are mouse fibroblasts that lack the Src kinase family members Src, Yes and Fyn.

In experiment [4] the test system is PC3-MM2 prostate cancer cells. The experiment can be described thus: orthotopic prostate model for in vivo metastases. Set-up: species or system Nu/Nu mice. On the procedure: Nu/Nu mice (8-12 weeks of age) were injected with PC3-MM2 prostate cancer cells into the prostate as described previously in Pettaway et al., Clin Cancer Res 1996, 2:1627-1636, hereby incorporated herein by reference in its entirety. […] All mice were sacrificed by cervical dislocation on about day 42. Tumor volume (measured by caliper), weight, and incidence of regional (celiac or para-aortal) lymph node metastases were recorded.

A further experiment has as its system COLO-320DM. Briefly: MTT growth inhibition, Dasatinib-resistant COLO-320DM. The class given is cell-based, human. The note with it: 8.0×10^3 cells/well, […] FBS, 78 Hr.
Another experiment deals with U87. The experiment can be described thus: brain tumor cell growth inhibition, U87. The class given is cell-based, Human. The note with it: U87, glioblastoma; astrocytoma; read-out: IC50 (title: GI50).
The test system of experiment [5] is Src-Y416 autophosphorylation. The experiment can be described thus: intracellular phosphorylation, Src autophosphorylation. The class given is cell-based. The conditions noted are these: HT29 and c-Src527F/NIH-3T3 cells, 0.2×-25× GI50. On the procedure: as §1, §2
The next experiment deals with JAK2 Y1007/1008. Briefly: whole cell phosphorylation, JAK2. The class given is cell-based. The note with it: whole cells.
For a further experiment, the system named is GL261. Briefly: brain tumor cell growth inhibition, GL261. The class given is cell-based. The note with it: GL261, mouse glioblastoma; read-out: IC50 (title: GI50).
In a further experiment the test system is Paxillin Y-31. The experiment can be described thus: intracellular phosphorylation, Paxillin Y-31. The class given is cell-based. The note with it: c-Src527F/NIH-3T3 cells. On the procedure:
as §1, §2

The next experiment concerns the target Lyn(h) (Homo sapiens, UniProt P07948). Briefly: isolated kinase activity, Lyn. The conditions noted are these: compound @ 10 μM. The class given is biochemical. From the text:
(§3) Table 8 illustrates percent activity of isolated kinases in the presence of the AstraZeneca ATP-competitive inhibitor (KX2-328, AZ-28) or KX2-391 relative to control (untreated) isolated kinases.

The target in another experiment is CHK1(h) (Homo sapiens, UniProt O14757). The experiment can be described thus: isolated kinase activity, CHK1. The class given is biochemical. The conditions noted are these: compound @ 10 μM.
Text: as §3

Another experiment has as its target ZAP-70(h) (Homo sapiens, UniProt P43403). Briefly: isolated kinase activity, ZAP-70. The class given is biochemical. The note with it: compound @ 10 μM.
Text: as §3

The target in the next experiment is Abl(h) (Homo sapiens, UniProt P00519). Briefly: isolated kinase activity, Abl. The class given is biochemical. The conditions noted are these: compound @ 10 μM.
Text: as §3

The next experiment concerns the target Lck(h) (Homo sapiens, UniProt P06239). Briefly: isolated kinase activity, Lck. The class given is biochemical. The note with it: compound @ 10 μM.
Text: as §3

The next experiment has as its target FGFR2(h) (Homo sapiens, UniProt P21802). The experiment can be described thus: isolated kinase activity, FGFR2. The class given is biochemical. The note with it: compound @ 10 μM.
Text: as §3

Another experiment concerns the target Pyk2(h) (Homo sapiens, UniProt Q14289). Briefly: isolated kinase activity, Pyk2. The class given is biochemical. The conditions noted are these: compound @ 10 μM.
Text: as §3

The next experiment concerns the target IGF-1R(h) (Homo sapiens, UniProt P08069). Briefly: isolated kinase activity, IGF-1R. The class given is biochemical. The conditions noted are these: compound @ 10 μM.
Text: as §3

IGF-1R(h), sequence (P08069 31-1367): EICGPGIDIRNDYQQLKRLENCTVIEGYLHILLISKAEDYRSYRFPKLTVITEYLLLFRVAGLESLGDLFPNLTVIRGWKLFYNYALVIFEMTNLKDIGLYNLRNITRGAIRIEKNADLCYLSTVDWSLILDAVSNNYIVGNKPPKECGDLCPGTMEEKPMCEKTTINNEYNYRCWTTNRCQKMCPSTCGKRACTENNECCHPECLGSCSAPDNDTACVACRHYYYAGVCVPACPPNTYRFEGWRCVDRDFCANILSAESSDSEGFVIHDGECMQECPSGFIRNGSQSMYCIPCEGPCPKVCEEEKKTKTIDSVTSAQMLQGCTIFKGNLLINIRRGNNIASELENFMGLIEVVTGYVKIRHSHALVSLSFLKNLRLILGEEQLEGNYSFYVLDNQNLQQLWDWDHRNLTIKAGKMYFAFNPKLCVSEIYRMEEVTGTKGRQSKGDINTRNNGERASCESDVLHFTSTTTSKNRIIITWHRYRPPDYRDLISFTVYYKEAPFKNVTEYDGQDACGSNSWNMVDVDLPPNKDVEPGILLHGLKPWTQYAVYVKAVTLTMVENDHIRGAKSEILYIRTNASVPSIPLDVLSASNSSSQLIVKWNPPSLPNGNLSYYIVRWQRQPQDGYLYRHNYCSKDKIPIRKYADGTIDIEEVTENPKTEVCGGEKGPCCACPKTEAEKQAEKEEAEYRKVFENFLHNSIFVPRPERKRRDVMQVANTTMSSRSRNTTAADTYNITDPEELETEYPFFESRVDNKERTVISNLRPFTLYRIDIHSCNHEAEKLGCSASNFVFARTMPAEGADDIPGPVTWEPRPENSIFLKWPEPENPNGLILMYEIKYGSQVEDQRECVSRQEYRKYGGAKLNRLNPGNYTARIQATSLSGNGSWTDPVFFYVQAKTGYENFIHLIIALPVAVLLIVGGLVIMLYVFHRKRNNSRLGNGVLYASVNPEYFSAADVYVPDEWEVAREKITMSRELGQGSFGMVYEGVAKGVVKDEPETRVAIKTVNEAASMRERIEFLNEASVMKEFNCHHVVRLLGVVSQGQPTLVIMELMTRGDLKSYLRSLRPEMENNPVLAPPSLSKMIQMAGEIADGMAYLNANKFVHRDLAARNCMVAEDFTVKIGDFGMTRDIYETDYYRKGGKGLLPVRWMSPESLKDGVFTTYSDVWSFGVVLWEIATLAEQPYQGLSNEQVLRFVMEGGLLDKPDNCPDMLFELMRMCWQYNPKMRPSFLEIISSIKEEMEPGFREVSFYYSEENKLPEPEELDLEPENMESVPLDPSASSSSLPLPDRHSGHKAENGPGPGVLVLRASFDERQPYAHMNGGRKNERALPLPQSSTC
FGFR2(h), sequence (P21802 22-821): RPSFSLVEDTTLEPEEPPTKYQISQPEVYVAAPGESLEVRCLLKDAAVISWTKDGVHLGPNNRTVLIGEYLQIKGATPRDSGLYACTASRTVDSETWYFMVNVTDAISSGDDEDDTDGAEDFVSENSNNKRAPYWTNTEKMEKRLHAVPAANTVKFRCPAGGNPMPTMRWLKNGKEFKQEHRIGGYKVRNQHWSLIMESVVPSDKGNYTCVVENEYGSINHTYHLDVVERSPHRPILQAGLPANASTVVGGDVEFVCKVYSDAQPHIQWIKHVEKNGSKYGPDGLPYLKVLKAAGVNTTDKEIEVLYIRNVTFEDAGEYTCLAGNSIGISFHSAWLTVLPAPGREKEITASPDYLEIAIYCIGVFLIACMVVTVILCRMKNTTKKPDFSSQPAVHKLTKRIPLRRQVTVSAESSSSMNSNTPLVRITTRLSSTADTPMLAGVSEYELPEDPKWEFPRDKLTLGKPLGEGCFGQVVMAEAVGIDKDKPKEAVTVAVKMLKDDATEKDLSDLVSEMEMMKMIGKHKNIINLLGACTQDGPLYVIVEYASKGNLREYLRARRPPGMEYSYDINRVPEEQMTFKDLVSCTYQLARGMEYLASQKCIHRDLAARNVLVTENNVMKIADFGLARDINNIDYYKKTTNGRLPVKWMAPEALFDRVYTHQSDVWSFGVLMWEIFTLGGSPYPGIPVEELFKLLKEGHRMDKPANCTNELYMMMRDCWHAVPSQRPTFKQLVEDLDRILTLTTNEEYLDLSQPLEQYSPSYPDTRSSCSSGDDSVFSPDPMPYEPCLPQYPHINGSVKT
Lyn(h), sequence (P07948 whole entry): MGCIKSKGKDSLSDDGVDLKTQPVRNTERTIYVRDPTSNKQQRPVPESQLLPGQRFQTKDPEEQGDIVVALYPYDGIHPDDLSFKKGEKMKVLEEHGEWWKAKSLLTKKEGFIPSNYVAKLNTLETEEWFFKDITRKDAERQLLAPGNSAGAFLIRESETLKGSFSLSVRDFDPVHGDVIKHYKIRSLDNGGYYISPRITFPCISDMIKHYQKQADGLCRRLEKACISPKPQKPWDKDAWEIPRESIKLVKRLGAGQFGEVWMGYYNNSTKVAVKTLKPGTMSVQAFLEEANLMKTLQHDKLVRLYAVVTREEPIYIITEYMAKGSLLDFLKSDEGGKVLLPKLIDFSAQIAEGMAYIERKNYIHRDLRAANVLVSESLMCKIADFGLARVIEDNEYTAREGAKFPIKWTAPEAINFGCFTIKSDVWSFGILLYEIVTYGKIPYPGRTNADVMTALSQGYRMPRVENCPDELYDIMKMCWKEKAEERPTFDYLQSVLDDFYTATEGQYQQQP
Pyk2(h), sequence (Q14289 whole entry): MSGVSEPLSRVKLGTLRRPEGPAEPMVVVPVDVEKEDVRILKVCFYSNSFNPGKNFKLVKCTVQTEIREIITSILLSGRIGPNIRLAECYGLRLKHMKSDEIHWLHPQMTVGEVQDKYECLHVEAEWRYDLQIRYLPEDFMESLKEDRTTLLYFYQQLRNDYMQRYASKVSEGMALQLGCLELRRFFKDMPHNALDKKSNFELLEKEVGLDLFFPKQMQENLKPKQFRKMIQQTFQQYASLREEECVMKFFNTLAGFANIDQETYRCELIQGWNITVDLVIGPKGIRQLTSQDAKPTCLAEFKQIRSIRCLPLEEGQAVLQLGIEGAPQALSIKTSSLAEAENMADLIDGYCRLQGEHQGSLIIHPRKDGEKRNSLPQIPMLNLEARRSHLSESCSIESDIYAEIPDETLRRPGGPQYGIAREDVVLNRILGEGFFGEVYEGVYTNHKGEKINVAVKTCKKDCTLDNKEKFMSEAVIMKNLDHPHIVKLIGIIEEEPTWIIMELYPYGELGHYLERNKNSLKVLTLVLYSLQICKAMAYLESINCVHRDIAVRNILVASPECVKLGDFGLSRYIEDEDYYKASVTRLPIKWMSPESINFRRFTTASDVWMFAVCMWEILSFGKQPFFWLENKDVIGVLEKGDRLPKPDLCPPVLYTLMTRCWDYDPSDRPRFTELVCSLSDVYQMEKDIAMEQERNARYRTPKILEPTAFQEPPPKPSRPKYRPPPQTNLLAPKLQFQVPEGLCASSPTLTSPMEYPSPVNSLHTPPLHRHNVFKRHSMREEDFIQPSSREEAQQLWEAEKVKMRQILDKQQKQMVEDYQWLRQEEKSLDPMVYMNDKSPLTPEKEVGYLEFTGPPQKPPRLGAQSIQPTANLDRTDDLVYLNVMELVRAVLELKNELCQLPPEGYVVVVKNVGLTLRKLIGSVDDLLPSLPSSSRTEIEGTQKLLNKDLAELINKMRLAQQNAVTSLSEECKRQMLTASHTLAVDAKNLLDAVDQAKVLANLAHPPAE
Abl(h), sequence (P00519 whole entry): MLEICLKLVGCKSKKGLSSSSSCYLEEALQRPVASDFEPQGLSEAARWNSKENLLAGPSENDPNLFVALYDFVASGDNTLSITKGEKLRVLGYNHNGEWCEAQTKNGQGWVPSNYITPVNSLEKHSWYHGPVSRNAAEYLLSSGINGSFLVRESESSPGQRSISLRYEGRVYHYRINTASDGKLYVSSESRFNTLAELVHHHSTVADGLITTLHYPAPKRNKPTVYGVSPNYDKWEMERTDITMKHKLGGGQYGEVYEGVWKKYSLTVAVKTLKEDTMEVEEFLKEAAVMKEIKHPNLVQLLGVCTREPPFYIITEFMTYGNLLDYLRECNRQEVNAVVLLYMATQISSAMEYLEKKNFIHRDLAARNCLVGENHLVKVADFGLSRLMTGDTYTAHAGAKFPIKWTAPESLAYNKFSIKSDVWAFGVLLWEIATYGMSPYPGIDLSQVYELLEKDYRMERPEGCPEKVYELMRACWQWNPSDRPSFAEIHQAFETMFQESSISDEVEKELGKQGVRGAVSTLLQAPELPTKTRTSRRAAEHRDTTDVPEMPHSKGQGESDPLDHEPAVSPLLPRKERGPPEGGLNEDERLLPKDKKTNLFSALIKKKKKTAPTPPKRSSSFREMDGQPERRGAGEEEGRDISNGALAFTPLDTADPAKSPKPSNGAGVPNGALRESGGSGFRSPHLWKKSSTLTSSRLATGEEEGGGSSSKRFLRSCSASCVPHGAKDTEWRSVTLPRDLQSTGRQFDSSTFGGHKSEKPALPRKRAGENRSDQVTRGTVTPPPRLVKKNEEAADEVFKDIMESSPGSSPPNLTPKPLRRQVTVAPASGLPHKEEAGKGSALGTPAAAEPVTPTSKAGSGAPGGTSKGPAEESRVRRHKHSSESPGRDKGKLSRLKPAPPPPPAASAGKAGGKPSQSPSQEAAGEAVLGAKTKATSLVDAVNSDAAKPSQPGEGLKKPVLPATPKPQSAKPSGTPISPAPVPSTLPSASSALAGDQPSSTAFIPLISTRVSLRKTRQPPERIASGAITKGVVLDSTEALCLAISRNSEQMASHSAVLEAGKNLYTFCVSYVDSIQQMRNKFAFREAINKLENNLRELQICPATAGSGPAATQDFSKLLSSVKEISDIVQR
Method for COLO-320DM: (§4) Cell proliferation/growth inhibition was assessed using MTT colorimetric assay.
(§5) On Day 3, 10 μL MTT (5 mg/mL) was added to each well. Cells were then incubated in the presence of MTT for 4 hours at 37° C., appropriate CO2 conditions. After this incubation period, 90 μL 10% SDS(+HCl) was added to each well to lyse cells and solubilize formazan. Cells were then incubated overnight at 37° C., appropriate CO2 conditions.
(§6) The OD570 was measured using microplate reader. Growth inhibition curves and EC50/IC50 was determined using GraphPad Prism 4 statistical software.
Method for H226: as §4, §5, §6
Method for H460: as §4, §5, §6

Consider `O=C(Cc1ccc(-c2ccc(OCCN3CCOCC3)cc2)cn1)NCc1ccccc1` [KXO1], for which the IC50 in the experiment on H226 turned out to be 98 nM; with H460, 51 nM; in the experiment on LN-18 it was 14.5 nM; in the experiment with COLO-320DM it was 30 nM; in the experiment with U87, 33.1 nM; in the experiment with GL261 it was 13.7 nM. The values for the IC80 with H226, in the experiment with H460 and in the experiment with COLO-320DM were 277 nM, 105 nM and 80 nM, respectively. For the same molecule, the results for the IC90 in the experiment with H226, with H460 and in the experiment with COLO-320DM were 490 nM, 162 nM and 144 nM, respectively. For the same molecule, the figures for the GI50 (in [1]; in [2]; in the experiment with Caki-2) were 10 nM, 35 nM and 39.2 nM, respectively. Moreover, the “FAK Y397 autophosphorylation” value in the experiment with FAK Y397 is “no inhibition”. Also, the “phosphorylation of JAK1 Y1022/1023” value in the experiment with JAK1 Y1022/1023 was “not inhibited”. Further, the “phosphorylation of Lck Y405” value with Lck Y405 is recorded as “not inhibited”. For the same molecule, the “phosphorylation of Bcr/Abl &245” value in the experiment with Bcr/Abl &245 was “inhibited less potently”. The “PTK selectivity in whole cells” value in experiment [3] was “very high PTK selectivity”. The LN metastasis is 4/5 in experiment [4] (5.0 mg/kg/day oral gavage) and 2/5 in [4] (10.0 mg/kg/day oral gavage). For the same molecule, the Tumor incidence in experiment [4] (5.0 mg/kg/day oral gavage) and in [4] (10.0 mg/kg/day oral gavage) was 5/6 each time. For the same molecule, the “Tumor weight (g) Median” value came out at 1.16 g in experiment [4] (5.0 mg/kg/day oral gavage) and 0.35 g in experiment [4] (10.0 mg/kg/day oral gavage). Also, the Src-Y416 autophosphorylation result in experiment [5] is “potent inhibitor”. In the experiment with JAK2 Y1007/1008, the “phosphorylation of JAK2 Y1007/1008” value is recorded as “not inhibited”.
Regarding `O=C(Cc1ccc(-c2ccc(OCCN3CCOCC3)cc2)cn1)NCc1ccccc1` [KX2-391], in the experiment on Paxillin Y-31, the “phosphorylation of Paxillin Y-31 (Src transphosphorylation)” value is given as “inhibited”. In addition, the “percent activity of isolated kinase relative to control” value was determined as 113% on Lyn(h); 105% at CHK1(h); 108% at ZAP-70(h); 120% on Abl(h); 109% on Lck(h); 94% at FGFR2(h). The entries for the “percent activity of isolated kinase relative to control” value at Pyk2(h) and on IGF-1R(h) were 97% and 101%, respectively.
